# From patent US9266933B2, “Polypeptides inhibiting neovascularization and uses thereof” (SHANGHAI FIRST PEOPLE'S HOSPITAL, priority 2011, dated 2016)
# “Also recorded” adds a separate entry of the source.
# Columns and labels:
# [1] = test system: Human Umbilical Vein Endothelial Cells (HUVECs); assay: MTS proliferation assay of VEGF-stimulated HUVECs; type: cell-based; details: VEGF + ZY3 in different concentrations, 24-hour incubation, compared with VEGF group; concentration-dependent; *P<0.05, **P<0.01
# Experimental: The MTS method was used as follows:
# Primary Human Umbilical Vein Endothelial Cells (HUVECs) (purchased from ScienCell Co.) were inoculated into a 96-well plate with an inoculation concentration of 2×10^4/ml. After cells had adhered to the wall, serum-free culture medium ECM was added and the cells were cultivated at 37° C. for 24 hours. Then the serum-free culture medium ECM as negative control, VEGF (100 ng/ml) (purchased from Sigma Co.) as positive control, VEGF (100 ng/well)+small peptide ZY3 in different concentrations as treatment groups were added in each well. After a 24-hour incubation, 20 μl 1 MTS solution (purchased from Promega Corporation) was added in each well. After incubation at 37° C. for 4 hours, the absorbance in each well was measured at 490 nm by using microplate reader (Bio-Rad Co.). The proliferation activity of cells was determined according to OD490. Finally, SPSS11.0.1 was used for statistical analysis.
# Derived Polypeptides were prepared as follows, and the inhibition effect of each ZY3 derived polypeptides on proliferation of Human Umbilical Vein Endothelial Cells HUVECs was determined according to the methods in Example 3.
# mouse cornea = assay: Mouse corneal stroma micropocket model of VEGF-induced pathological angiogenesis; type: in vivo, C57BL/6 mice; details: VEGF + ZY3 low (0.5 μg/granule) and high (2 μg/granule) concentration, 5 days after operation, compared with VEGF group; **P<0.01
# Experimental: Mice model of the corneal stroma micropocket was used and the methods were as follows:
# Male C57BL/6 mice (4-5 week old) were intraperitoneally injected with 2% pentobarbital (about 0.1 ml/mouse) for anesthesia. 4% hydrochloric oxybuprocaine ophthalmic solution was locally administrated. Under the stereo microscope, OT syringe needle and 2 ml syringe needle were used to perform a blunt dissection between the layers of corneal stroma at 0.8-1 mm from corneoscleral limbus. A pouch of about 0.6×0.8 mm was formed. […] Neovascularization area were calculated as followed: Area (mm^2)=0.5*3.14*VL (mm)*CN*0.4 (mm) SPSS1L 0.1 was used for statistical analysis.
# [2] = test system: Human Umbilical Vein Endothelial Cells (HUVECs); assay: Matrigel lumen formation assay of HUVECs; type: cell-based; details: VEGF + ZY3 in different concentrations (incl. 160 μM), 6 hours, compared with VEGF group; concentration-dependent; *P<0.05
# Experimental: The Matrigel method was used as follows:
# A 50 μl/well Matrigel (purchased from BD Co.) was added into a 96-well plate, and then the plate was incubated at 37° C. for 30 min. Upon solidification, the primary HUVECs were inoculated onto the surface of Matrigel with an inoculation concentration of 8×10^6/ml. Then the serum-free culture medium ECM as negative control, VEGF (100 ng/ml) (purchased from Sigma Co.) as positive control, VEGF (100 ng/well)+small peptide ZY3 in different concentrations as treatment groups were added in each well. The plate wad incubated at 37° C. After treating for 6 hours, photos were taken for cells in 3 randomized fields in the plate under the microscope (×200 fold.), and the sum of the maximum lumina diameter formed in the cells was calculated. Finally, SPSS11.0.1 was used for statistical analysis.
# [3] = test system: chick embryo chorioallantoic membrane; assay: Angiogenesis in chick embryo chorioallantoic membrane model; type: in vivo; details: low (10 μg/piece) and high (50 μg/piece) concentration on filter paper, 2 days, compared with PBS group; **P<0.01
# Experimental: Model of chick embryo chorioallantoic membrane was used and the methods were as follows:
# Upon sterilization, the chick fertile eggs of 1-2 days old (purchased from 36 Lianhuaqing Chicken Farm of Shanghai Xinghuo Farm) were placed into a thermhygrostat (purchased from Shanghai Boxun industrial Co., ltd. SPX-250C) (T=37° C., Humidity H=60-70%) to incubate for 5 days. Every day, the eggs were overturned for one time at morning and night. Onto the filter paper (Whatman quantitative filter papers, Sigma, ashless, Grade 42, Cat No 1442-042, 42.5 mm Φ×100 circles) containing cortisone acetate (5 μg/μl, 5 μl/piece), PBS (5 μl/piece), low (2 μg/μl) or high (10 μg/μl) concentration of small peptides ZY3 (5 μl/piece) were dropped respectively. After air-dried, the filter paper was placed between the major vessels on chorioallantoic membrane of fertile eggs and the eggs were sealed. The eggs were placed in the thermhygrostat (T=37° C., Humidity H=60-70%) to incubate for another 2 days (24 hours a day) without overturning. Then the chorioallantoic membrane was thoroughly exposed and photographed (the range was within 5 mm around the filter paper). The number of 3-5 subordinate microvessels in the area within 2.5 mm around the filter paper was counted. SPSS11.0.1 was used for statistical analysis.
sequence,measurement,setting,value
TANVTMQLLKIRSGDRPSYVELTFSQH (angiogenesis-inhibiting peptide ZY3),"proliferation of HUVECs (OD490, MTS)",[1],significantly inhibited
same,corneal angiogenesis (neovascularization area on mouse cornea),mouse cornea,significantly inhibited
same,lumen formation of HUVECs (sum of maximum lumina diameter),[2],significantly inhibited
same,angiogenesis of chick embryo chorioallantoic membrane (count of 3-5 subordinate microvessels within 2.5 mm around the filter paper),[3],significant inhabitation effects; also recorded: significantly inhibited
